These results are taken from article PMC11348189, “Disorder-to-order active site capping regulates the rate-limiting step of the inositol pathway” (Proceedings of the National Academy of Sciences of the …, 2024).

The structures appear in SMILES notation.

For test [1], the target named is T1, endogenous fungal MIPS (myo-inositol-1-phosphate synthase) (Thermochaetoides thermophila, UniProt G0SDP4).
T1 construct: gene CTHT_0052500; native full-length enzyme in SEC fraction of T. thermophila cell extract, no tag; 240 kDa homotetramer; residues 40-552 resolved
T1 sequence (G0SDP4 1-552): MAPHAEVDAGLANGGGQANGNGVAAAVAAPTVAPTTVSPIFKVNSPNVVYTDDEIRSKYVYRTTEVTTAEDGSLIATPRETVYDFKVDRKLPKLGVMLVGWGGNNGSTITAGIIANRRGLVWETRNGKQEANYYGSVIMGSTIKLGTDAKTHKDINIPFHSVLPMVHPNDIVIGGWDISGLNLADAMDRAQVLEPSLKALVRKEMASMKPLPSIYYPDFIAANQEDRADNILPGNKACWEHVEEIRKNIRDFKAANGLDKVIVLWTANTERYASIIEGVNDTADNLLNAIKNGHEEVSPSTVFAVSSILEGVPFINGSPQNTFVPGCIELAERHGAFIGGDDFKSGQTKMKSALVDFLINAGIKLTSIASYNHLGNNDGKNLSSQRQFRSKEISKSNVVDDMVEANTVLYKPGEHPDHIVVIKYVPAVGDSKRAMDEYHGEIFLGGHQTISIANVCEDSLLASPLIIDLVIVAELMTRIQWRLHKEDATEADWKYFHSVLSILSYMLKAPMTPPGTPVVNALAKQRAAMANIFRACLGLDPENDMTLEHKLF
Description: cryo-EM structure ([…] Å). It is filed as binding. The conditions noted are these: endogenously bound in all four active sites; native SEC fraction, pH 7.4; monovalent cation (probably K+) near NAD.

In test [2] the target is T1, endogenous fungal MIPS (myo-inositol-1-phosphate synthase). Put plainly: phosphate release after periodate oxidation, molybdate, […] nm. It is filed as biochemical. The conditions noted are these: SEC fraction of cell extract; 5 mM G6P, 0.8 mM NAD+, 14 mM ammonium acetate, 2 mM DTT, 100 mM Tris-acetate pH 8, 37 °C.

With `NC(=O)c1ccc[n+]([C@@H]2O[C@H](COP(=O)(O)OP(=O)(O)OC[C@H]3O[C@@H](n4cnc5c(N)ncnc54)[C@H](O)[C@@H]3O)[C@@H](O)[C@H]2O)c1` [NAD^+], the “cryo-EM structure (2.48 Å)” value in test [1] is “allowing for the unambiguous placement of the cofactor NAD (Fig. 2A)”.

`O=P(O)(O)OC[C@H]1OC(O)[C@H](O)[C@@H](O)[C@@H]1O` (some centres unmarked) [glucose-6-phosphate]: in test [2], the “phosphate release after periodate oxidation, molybdate, 820 nm” value is “probe the identified fractions for their capacity to convert G6P to IMP”.
